# Values quoted from earlier work, collected in patent US10149821B2, “Orosoluble and/or effervescent compositions containing at least a salt of S-adenosyl methionine (SAMe)” (priority 2009, dated 2018).
# Key:
# [1] = temperatures above 0° C.
# [2] = oral intake, SAMe radiolabeled on the carbon of the methyl group
# [3] = not given; remark: listed apart in the source
compound,measurement,setting,value
"C[S+](CC[C@H](N)C(=O)O)C[C@H]1O[C@@H](n2cnc3c(N)ncnc32)[C@H](O)[C@@H]1O (some centres unmarked) [SAMe, S-adenosyl methionine]",stability,[1],very unstable
same,"plasma levels of the non-modified molecule, % of the administered dose","oral intake, swallowable gastro-protected tablets",5-10%
same,"plasma bioavailability, % of the administered dose",parenteral administration (endovenous or intramuscular),90-100%
same,"hepatic metabolism, % of the administered radioactivity",[2],about 60%
same,half-life in the liver,[3],about 5 minutes
